The subject of test [1] is E. coli 190317. The test is described as follows: MIC of compound alone, broth microdilution. The class given is cell-based. The note with it: strain 190317; compound alone. In a few lines:
(§1)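 Visual end point: lowest concentration that blocked growth. Conditions: cation-adjusted Mueller-Hinton broth, 5×10^5 cfu/mL final inoculum of log-phase bacteria, 16-20 h, 35° C, ambient atmosphere.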
In general terms: Broth dilution looks for growth in wells or tubes with falling amounts of substance.

Test [2] deals with K. pneumoniae 6299. In words: MIC of compound alone, broth microdilution. The class given is cell-based. Conditions: strain 6299; compound alone. In short, it runs like this: as §1
For test [3], the system named is K. pneumoniae BAA-1898. The test is described as follows: MIC of compound alone, broth microdilution. The class given is cell-based. The note with it: strain BAA-1898; compound alone. In a few lines: as §1
For test [4], the system named is E. cloacae P99. In words: MIC of compound alone, broth microdilution. The class given is cell-based. The note with it: strain P99; compound alone. In a few lines:
as §1

For test [5], the system named is P. aeruginosa CIP107051. In words: MIC of compound alone, broth microdilution. The class given is cell-based. The note with it: strain CIP107051; compound alone. In a few lines: as §1
The next test has as its target KPC-2 (Klebsiella pneumoniae, UniProt Q9F663). Conditions: read-out: IC50 β-lactamase KPC-2; class (A); nitrocefin 200 μM, 30-min pre-incubation, enzyme 1 nM.
The target of a further test is AmpC (PAE) (Pseudomonas aeruginosa, UniProt P24735). Conditions: read-out: IC50 β-lactamase AmpC (PAE); class (C); nitrocefin 200 μM, 30-min pre-incubation, enzyme 0.4 nM.
A further test deals with TEM-1 (Escherichia coli, UniProt P62593). The note with it: read-out: IC50 β-lactamase TEM-1; class (A); nitrocefin 200 μM, 30-min pre-incubation, enzyme 0.1 nM.
In test [6] the test system is E. coli 190317. In words: MIC of ceftazidime (CAZ) at fixed concentration of compound (synergy), broth microdilution. The class given is cell-based. Conditions: strain 190317; MIC of CAZ, compound fixed at 4 μg/mL. In a few lines: as §1
Test [7] relates to K. pneumoniae 6299. The description is as above. Conditions: strain 6299; MIC of CAZ, compound fixed at 4 μg/mL. The class given is cell-based. In a few lines:
as §1

Test [8] concerns K. pneumoniae BAA-1898. The description is as above. The class given is cell-based. Conditions: strain BAA-1898; MIC of CAZ, compound fixed at 4 μg/mL. In short, it runs like this: as §1
Test [9] concerns E. cloacae P99. The test is described as above. The class given is cell-based. Conditions: strain P99; MIC of CAZ, compound fixed at 4 μg/mL. In short, it runs like this: as §1
For test [10], the system named is P. aeruginosa CIP107051. Described as above. The class given is cell-based. The note with it: strain CIP107051; MIC of CAZ, compound fixed at 4 μg/mL. In short, it runs like this:
as §1

The target in another test is OXA-48 (Klebsiella pneumoniae, UniProt Q6XEC0). The note with it: read-out: IC50 β-lactamase OXA-48; class (D); nitrocefin 200 μM, 30-min pre-incubation, enzyme 0.3 nM.
Another test addresses CTX-M-15 (Escherichia coli, UniProt Q9EXV5). The note with it: read-out: IC50 β-lactamase CTX-M-15; class (A); nitrocefin 200 μM, 30-min pre-incubation, enzyme 0.4 nM.
In another test the target is AmpC (P99) (Enterobacter cloacae, UniProt P05364). The note with it: read-out: IC50 β-lactamase AmpC (P99); class (C); nitrocefin 200 μM, 30-min pre-incubation, enzyme 0.2 nM.
In the next test the target is OXA-15 (Pseudomonas aeruginosa, UniProt Q51574). Conditions: read-out: IC50 β-lactamase OXA-15; class (D); nitrocefin 200 μM, 30-min pre-incubation, enzyme 0.4 nM.
For a further test, the target named is OXA-1 (Escherichia coli, UniProt P13661). Conditions: read-out: IC50 β-lactamase OXA-1; class (D); nitrocefin 200 μM, 30-min pre-incubation, enzyme 0.2 nM.
The target of the next test is SHV-1 (Klebsiella pneumoniae, UniProt P0AD64). Conditions: read-out: IC50 β-lactamase SHV-1; class (A); nitrocefin 200 μM, 30-min pre-incubation, enzyme 0.075 nM.
Another test has as its target OXA-11 (Pseudomonas aeruginosa, UniProt Q06778). Conditions: read-out: IC50 β-lactamase OXA-11; class (D); nitrocefin 200 μM, 30-min pre-incubation, enzyme 1.2 nM.
The target of a further test is CMY-37 (Citrobacter freundii, UniProt P05193). The note with it: read-out: IC50 β-lactamase CMY-37; class (C); nitrocefin 200 μM, 30-min pre-incubation, enzyme 0.2 nM.

For the compound `Cc1cc(C(N)=O)nn1C1=CC2CN(C1)C(=O)N2OS(=O)(=O)[O-].[Na+]` (stereo not drawn) [Example 23, sodium (7-oxo-3-(3-carboxamide-5-methyl-pyrazol-1-yl)-1,6-diazabicyclo[3.2.1]oct-3-en-6-yl) sulfate], the “MIC compounds of the invention alone” value in the test on E. coli 190317 [1], in the test with K. pneumoniae 6299 [2], with K. pneumoniae BAA-1898 [3], in the test on E. cloacae P99 [4] and with P. aeruginosa CIP107051 [5] was above 32 µg/mL throughout. The half-inhibitory concentration (IC50) turned out to be 5.7 nM on KPC-2; 220 nM at AmpC (PAE); 0.19 nM on TEM-1; 110 nM at OXA-48; 1 nM at CTX-M-15; 38 nM at AmpC (P99). In addition, the half-maximal inhibitory concentration (IC50) at OXA-15 stood at 760 nM; at OXA-1, 1500 nM; at SHV-1 it was 0.36 nM; at OXA-11, 1100 nM; at CMY-37, 54 nM. For the same compound, the “MIC combination of CAZ and compounds of the invention at 4 μg/mL” value (“MIC combination” for short) was determined as 0.5 µg/mL in the test with E. coli 190317 [6]; 4 µg/mL in the test on K. pneumoniae 6299 [7]; 4 µg/mL in the test with K. pneumoniae BAA-1898 [8]; 8 µg/mL in the test with E. cloacae P99 [9]; 16 µg/mL with P. aeruginosa CIP107051 [10].

On to `CN(C)Cc1cn(C2=CC3CN(C2)C(=O)N3OS(=O)(=O)[O-])nn1.[Na+]` (stereo not drawn) [Example 59, sodium [3-[4-(dimethylamino)methyltriazol-1-yl]-7-oxo-1,6-diazabicyclo[3.2.1]oct-3-en-6-yl]sulfate], for which the “MIC compounds of the invention alone” value with E. coli 190317 [1] was 1 µg/mL; in the test with K. pneumoniae 6299 [2] it was above 32 µg/mL; with K. pneumoniae BAA-1898 [3], above 32 µg/mL; in the test on E. cloacae P99 [4] it was 2 µg/mL; in the test on P. aeruginosa CIP107051 [5], above 32 µg/mL. The IC50 at KPC-2 stood at 12 nM; on AmpC (PAE), 590 nM; at TEM-1 it was 0.69 nM; on OXA-48, 1.2 nM; on CTX-M-15, 0.55 nM; at AmpC (P99), 34 nM. Also, the IC50 on OXA-15 came out at 6.6 nM; at OXA-1, 210 nM; at SHV-1 it was 2.5 nM; at OXA-11 it was 170 nM; on CMY-37 it was 72 nM. Further, the “MIC combination” value with E. coli 190317 [6] is below 0.25 µg/mL; with K. pneumoniae 6299 [7] it was at most 0.25 µg/mL; in the test with K. pneumoniae BAA-1898 [8] it was at most 0.25 µg/mL; with E. cloacae P99 [9] it was below 0.25 µg/mL; with P. aeruginosa CIP107051 [10], 8 µg/mL.

Consider `NCCONC(=O)c1cnn(C2=CC3CN(C2)C(=O)N3OS(=O)(=O)[O-])c1.O=C(O)C(F)(F)F.[Na+]` (stereo not drawn) [Example 24, sodium and 2,2,2-trifluoroacetate [7-oxo-3-[4-carboxamide,N-(2-ammoniumethoxy)-pyrazol-1-yl]-1,6-diazabicyclo[3.2.1]oct-3-en-6-yl]sulfate], for which the “MIC compounds of the invention alone” value in the test with E. coli 190317 [1] was 2 µg/mL; in the test on K. pneumoniae 6299 [2] it was above 32 µg/mL; with K. pneumoniae BAA-1898 [3], above 32 µg/mL; with E. cloacae P99 [4], 16 µg/mL; in the test with P. aeruginosa CIP107051 [5], above 32 µg/mL. For the same compound, the IC50 at KPC-2 was determined as 5.2 nM; at AmpC (PAE), 160 nM; on TEM-1, 0.37 nM; at OXA-48 it was 4.6 nM; on CTX-M-15, 0.75 nM; on AmpC (P99) it was 12 nM. Besides, the IC50 at OXA-15 was 48 nM; at OXA-1, 76 nM; on SHV-1 it was 2.4 nM; at OXA-11, 95 nM; at CMY-37, 16 nM. Besides, the “MIC combination” value with E. coli 190317 [6] was below 0.25 µg/mL; in the test with K. pneumoniae 6299 [7] it was 0.25 µg/mL; in the test with K. pneumoniae BAA-1898 [8] it was 1 µg/mL; in the test on E. cloacae P99 [9], 0.25 µg/mL; with P. aeruginosa CIP107051 [10] it was 4 µg/mL.

Take `NC(=O)c1cn(C2=CC3CN(C2)C(=O)N3OS(=O)(=O)[O-])nn1.[Na+]` (stereo not drawn) [Example 56, sodium [3-(4-carbamoyltriazol-1-yl)-7-oxo-1,6-diazabicyclo[3.2.1]oct-3-en-6-yl]sulfate]: the “MIC compounds of the invention alone” value with E. coli 190317 [1] was 4 µg/mL; with K. pneumoniae 6299 [2], 32 µg/mL; with K. pneumoniae BAA-1898 [3] it was 32 µg/mL; with E. cloacae P99 [4], 8 µg/mL; in the test on P. aeruginosa CIP107051 [5], above 32 µg/mL. Further, the IC50 on KPC-2 is 2.4 nM; at AmpC (PAE), 290 nM; on TEM-1, 0.17 nM; on OXA-48 it was 0.48 nM; on CTX-M-15, 0.44 nM; at AmpC (P99), 12 nM. Further, the IC50 is 9 nM on OXA-15; 30 nM on OXA-1; 1 nM on SHV-1; 37 nM on OXA-11; 38 nM on CMY-37. Moreover, the “MIC combination” value with E. coli 190317 [6] was below 0.25 µg/mL; in the test on K. pneumoniae 6299 [7] it was at most 0.25 µg/mL; in the test with K. pneumoniae BAA-1898 [8], at most 0.25 µg/mL; with E. cloacae P99 [9] it was at most 0.25 µg/mL; in the test on P. aeruginosa CIP107051 [10] it was 8 µg/mL.

For `O=C1N2CC(n3cc(S(=O)(=O)NCCO)cn3)=CC(C2)N1OS(=O)(=O)[O-].[Na+]` (stereo not drawn) [Example 74, sodium [3-[4-(2-hydroxyethylsulfamoyl)pyrazol-1-yl]-7-oxo-1,6-diazabicyclo[3.2.1]oct-3-en-6-yl]sulfate], the “MIC compounds of the invention alone” value was 8 µg/mL in the test with E. coli 190317 [1]; 16 µg/mL in the test with K. pneumoniae 6299 [2]; 16 µg/mL in the test on K. pneumoniae BAA-1898 [3]; 16 µg/mL in the test on E. cloacae P99 [4]; above 32 µg/mL in the test on P. aeruginosa CIP107051 [5]. Further, the half-inhibitory concentration (IC50) at KPC-2 amounted to 3 nM; on AmpC (PAE) it was 110 nM; on TEM-1, 0.34 nM; at OXA-48, 2.9 nM; at CTX-M-15, 1.1 nM; at AmpC (P99), 9.5 nM. For the same compound, the IC50 at OXA-15 turned out to be 48 nM; on OXA-1, 22 nM; at SHV-1, 2.2 nM; on OXA-11, 20 nM; on CMY-37 it was 25 nM. In addition, the “MIC combination” value in the test with E. coli 190317 [6] was at most 0.25 µg/mL; with K. pneumoniae 6299 [7], at most 0.25 µg/mL; in the test with K. pneumoniae BAA-1898 [8], 0.25 µg/mL; in the test with E. cloacae P99 [9] it was 0.5 µg/mL; with P. aeruginosa CIP107051 [10], 8 µg/mL.

What is called IC50 is the concentration that gives 50% inhibition.

These data come from patent publication US10722520B2, “Heterocyclic compounds and their use in preventing or treating bacterial infections” (MUTABILIS, priority 2016, dated 2020).
